Test results from patent publication US20110306650A1 (Chiesi Farmaceutici S.p.A., priority 2010, published 2011).

Test: compatibility with other active ingredients in pharmaceutical formulations
Assay type: physicochemical
Conditions: especially with formoterol; relative to glycopyrronium bromide

C[N+]1(C)CCC(OC(=O)C(O)(c2ccccc2)C2CCCC2)C1.[Cl-] (stereo not shown) [glycopyrronium chloride]
compatibility with other active ingredients: better compatibility
